From article PMC11455950, “Effects of SZV-2649, a new multiple ion channel inhibitor mexiletine analogue” (Scientific Reports, 2024)

Key:
[1] = test system: dog right ventricular muscle preparations; assay: Conventional microelectrode action potential recording, dog ventricular muscle; conditions: 10 µM
[2] = test system: dog Purkinje fiber preparations; assay: Conventional microelectrode action potential recording, dog Purkinje fibers; conditions: CL = 500 ms, n = 10
Method: (§1) The effects of SZV-2649 on action potentials were studied in dog ventricular, atrial and Purkinje fiber preparations.
(§2) Action potentials were recorded in cardiac ventricular trabeculae and papillary muscle preparations obtained from the right ventricles of Beagle dogs (10–15 kg) of either sex using the conventional microelectrode technique. Dogs were sacrificed by iv. sedation with xylazine (1 mg/kg), followed by i.v. administration of 50 mg/kg pentobarbital. After the cornea reflex disapeared the chest was opened, and the heart was rapidly removed. The heart was immediately rinsed in oxygenated modified Locke’s solution containing (in mM): NaCl 128.3, KCl 4, CaCl2 1.8, MgCl2 0.42, NaHCO3 21.4, and glucose 10. The pH of this solution was set between 7.35 and 7.4 when gassed with the mixture of 95% O2 and 5% CO2 at 37 °C.
Isolated papillary muscle or atrial trabecula and Purkinje fiber preparations were obtained and prepared from the right ventricle and were individually mounted in a tissue chamber with the volume of 50 ml. Each preparation was initially stimulated through a pair of platinum electrodes in contact with the preparation using rectangular current pulses of 2 ms duration. These stimuli were delivered at a constant cycle length of 1000 ms for at least 60 min allowing the preparation to equilibrate before the measurements were initiated. Transmembrane potentials were recorded using conventional glass microelectrodes, filled with 3 M KCl and having tip resistances of 5–20 MΩ, connected to the input of a high impedance electrometer (Experimetria, type 309, Budapest, Hungary) which was coupled to a dual beam oscilloscope. […] Attempts were made to maintain the same impalement throughout each experiment. In case an impalement became dislodged, adjustment was attempted, and if the action potential characteristics of the re-established impalement deviated by less than 5% from the previous measurement, the experiment continued[64]–[67]. All measurements were carried out at 37 °C.

[3] = test system: dog atrial muscle; assay: Conventional microelectrode action potential recording, dog atrial muscle; conditions: for APA / APD50 / APD90 / RP / Vmax: atrial muscle, CL = 1000 ms, n = 11
Method: as §1, §2
Isolated papillary muscle or atrial trabecula and Purkinje fiber preparations were obtained and prepared from the right ventricle and were individually mounted in a tissue chamber with the volume of 50 ml. Each preparation was initially stimulated through a pair of platinum electrodes in contact with the preparation using rectangular current pulses of 2 ms duration. These stimuli were delivered at a constant cycle length of 1000 ms for at least 60 min allowing the preparation to equilibrate before the measurements were initiated. Transmembrane potentials were recorded using conventional glass microelectrodes, filled with 3 M KCl and having tip resistances of 5–20 MΩ, connected to the input of a high impedance electrometer (Experimetria, type 309, Budapest, Hungary) which was coupled to a dual beam oscilloscope. […] Stimulation with a constant cycle length of 1000 ms was applied in the course of all experiments. Attempts were made to maintain the same impalement throughout each experiment. In case an impalement became dislodged, adjustment was attempted, and if the action potential characteristics of the re-established impalement deviated by less than 5% from the previous measurement, the experiment continued[64]–[67]. All measurements were carried out at 37 °C.

Structure (SMILES): CC(N)COc1c(I)cc(C#N)cc1I.Cl (stereo not drawn) [SZV-2649, 4-(2-aminopropoxy)-3,5-diiodobenzonitrile hydrochloride]
- Onset kinetics of Vmax block ([1]; after 1 min rest, stimulation cycle length 400 ms): 3.1
- Effect on Vmax as a function of stimulation cycle length ([1]; dog ventricular muscle, steady-state stimulation): decreased Vmax at cycle lengths shorter than 2000 ms
- APA ([2]; 5 µM): 123.8 ± 2.3 mV
- APD50 ([2]; 5 µM): 113.6 ± 5.6 ms
- APD90 ([2]; 5 µM): 217.4 ± 5.1 ms
- RP ([2]; 5 µM): −84.7 ± 1.7 mV
- Vmax ([2]; 5 µM): 507.4 ± 53.4 V/s
- APA ([2]; 10 µM): 119.2 ± 3.3 mV
- APD50 ([2]; 10 µM): 112.4 ± 7.9 ms
- APD90 ([2]; 10 µM): 223.4 ± 5.6 ms
- RP ([2]; 10 µM): −86.0 ± 1.1 mV
- Vmax ([2]; 10 µM): 415.0 ± 28.9 V/s
- Vmax ([2]; […]): 581.1 ± 39.0 V/s
- APA ([3]; 5 µM): 108.8 ± 1.9 mV
- APD50 ([3]; 5 µM): 73.3 ± 6.2 ms
- APD90 ([3]; 5 µM): 168.9 ± 8.8 ms
- RP ([3]; 5 µM): −88.2 ± 1.8 mV
- Vmax ([3]; 5 µM): 195.3 ± 22.0 V/s
- APA ([3]; 10 µM): 102.6 ± 3.2 mV
- APD50 ([3]; 10 µM): 70.1 ± 6.2 ms
- APD90 ([3]; 10 µM): 176.8 ± 8.5 ms
- RP ([3]; 10 µM): −85.1 ± 1.7 mV
- Vmax ([3]; 10 µM): 145.9 ± 12.1 V/s
- Prolongation of repolarization (APD) in the absence of carbachol ([3]; 10 µM, dog atrial muscle): 10%
